US20180136227A1, “Treatment and Diagnosis of Hereditary Xerocytosis” (Universite d'aix Marseille, priority 2015, published 2018)

Assays:
[1] = tested on: control red blood cells with WT Gardos channels; test: Vanadate-induced K+ loss and water loss in control red blood cells; type: cell-based, human
Method: Red blood cell cation content and volume measurements: Freshly drawn blood was washed 4 times at room temperature in medium containing in mM: NaCl 147, KCl 5, MgSO4 2, CaCl2 1, Hepes 10, buffered with NaOH pH 7.4 (320 mOsm). […] A few minutes before sampling time, 400 μl of cell suspension was taken to fill 3 nylon tubes that were centrifuged for 10 minutes at 4° C., 20,000. g at the exact sampling time. The supernatant was collected for extracellular ion content measurements. The pellet of red cells was extracted and immediately weighted. Then, dry weight was measured after overnight heating (80° C.). Water content was calculated with a correction of 3.64% corresponding to trapped medium between packed cells. Intracellular ions were extracted from dried pellets by overnight incubation at 4° C. in 5 ml milliRho water (Millipore). Na^+ and K^+ were measured by flame spectroscopy with a PFP7 Jenway. Statistics: Mann and Whitney test was used to compare control versus patient or control versus inhibitor in red blood cell experiments.

control red blood cells = test: Osmotic fragility test in hypotonic saline, control red blood cells; conditions: for hemolysis induced before the osmotic test: blood incubation 25 hours, control red blood cells
[2] = Sickle Cell disease, Ataga et al., 2011; cited from earlier work

Row | SMILES | inhibition at 0.4 µM ([1]; Homo sapiens, Erythrocyte, 1 h) [%] | inhibition at 4 µM ([1]; Homo sapiens, Erythrocyte, 1 h) [%] | hemolysis induced before the osmotic test (control red blood cells; Senicapoc 4 or 0.4 μM) | effect on osmotic resistance (control red blood cells; Senicapoc 4 or 0.4 μM, blood stored 25 hours at 4° C., control) | toxicity in phase III study [2] | inhibition at 10 µM ([1]; Homo sapiens, Erythrocyte, 1 h, read-out: inhibition of K+ loss) [%] | effect on K+ loss and cell water loss ([1]; TRAM-34 10 μM, 5 mM vanadate, red blood cells with WT Gardos channels) | hemolysis induced before the osmotic test (control red blood cells; TRAM-34 10 μM)
1 | NC(=O)C(c1ccccc1)(c1ccc(F)cc1)c1ccc(F)cc1 [Senicapoc, bis(4-fluorophenyl)phenyl acetamide] | 84 ± 4 | 95 ± 4 | not observed | no effect | non-toxic | – | – | –
2 | Clc1ccccc1C(c1ccccc1)(c1ccccc1)n1cccn1 [TRAM-34, 1-[(2-Chlorophenyl)diphenylmethyl]-1H-pyrazole] | – | – | – | – | – | 97 ± 1 | able to reduce | strong hemolysis
